Results taken from patent publication US7888357B2, “Anti-inflammatory and protein kinase inhibitor compositions and related methods for downregulation of detrimental cellular responses and inhibition of cell death” (Northwestern University, priority 2001, dated 2011).

What was measured:
rats = experiment: Organ histology after high dose injections; format: in vivo, rat; conditions: after high dose injections into rats (data not shown)
protein kinase C (PKC) = experiment: Reconstituted enzyme assay, PKC; format: biochemical, rat; conditions: γ-[32P]-ATP, synthetic peptide substrate; read-out: IC50 PKC
Experimental: [table] […] The rationale for using BV-2 cells in high throughput screening was the paucity of well-characterized human microglial cell lines, and the relevant activation responses and signaling pathways reflect those seen in human and rodent primary microglial cultures. Compounds were tested for their effects on NO accumulation in conditioned media of LPS-stimulated BV-2 cells by measurement of nitrite production by the Griess assay as a read-out for iNOS activity, as described previously. Stock solutions of compounds were prepared in dimethylsulfoxide (DMSO) or in water. When stock solutions were prepared in DMSO, control wells contained the same final concentration of DMSO as the compound-containing wells. […] Solutions of compounds for cell treatments were diluted to a 10× final concentration by dilution of stock solutions in αMEM media. […] Reconstituted enzyme assays were done as described s. The sources of protein kinases were: bovine heart PKA from Promega, rat brain PKC from Calbiochem, rat CaMKII from New England Biolabs, chicken gizzard MLCK prepared as described, and a p38 MAP kinase kit containing recombinant Xenopus p38-MAPK and its human substrate from Upstate Biotechnology. The catalytic domains of these protein kinases retain a high level of amino acid sequence identity across mammalian species, consistent with the lack of documented major differences across species for the in vitro catalytic activity of a given kinase.

BV-2 cells = experiment: Western blot of transcription factor and kinase phosphorylation in LPS-treated BV-2 cells; format: cell-based, murine; conditions: compound 10 μM
Experimental: FIG. 2. Selective effects of compound 1 (MW01-070C) on glial activation responses and gene-regulating protein kinase pathways. BV-2 cells and rat astrocytes were treated with control buffer (C) or stimulated with LPS or Aβ1-42 peptide in the presence or absence of compound 1, and cell lysates were analyzed by Western blots. (A) Astrocytes treated with LPS and compound 1 show concentration-dependent inhibition of iNOS and IL-1β production but not GFAP. (B) Astrocytes treated with A β1-42 and compound 1 (10 μM) show inhibition of iNOS and IL-1β but not apoE and COX-2. (C) BV-2 cells treated with LPS and compound 1 (10 μM) show inhibition of phosphorylated (p-) CREB but not p-p38 and p-ATF2, as assayed with antibodies that are specific for the phosphorylated forms of the proteins. Data are expressed as percent control (mean±SD; n=3 determinations).
FIG. 7. Effects of MW01-070C on phosphorylation of transcription factors and an upstream activating kinase. BV-2 cells were incubated for 4 hr with control buffer (lane 1), 500 ng/ml LPS (lane 2), or […] LPS+10 μM MW01-070C (lane 3). The levels of phosphorylated (p-) ATF2, p38, and CREB were determined by Western blot of cell lysates, using antibodies that are specific for the phosphorylated forms of these proteins.
For analysis of transcription factor phosphorylation, BV-2 cells were plated at 2×10^5 cells/well in a 12-well tissue culture plate, and grown for 48 hrs in αMEM containing 10% FBS. Immediately before treatment, media was removed, cells were rinsed with PBS, and media changed to serum-free αMEM. Cells were then treated for 4 hrs with control buffer or LPS (500 ng/ml) in the presence or absence of MW01-070C (10 μM), and cell lysates harvested for Western blot analysis.
Cell lysates were prepared and Western blots were done as previously described [Petrova, T. V., Akama, K. T., and Van Eldik, L. J. (1999) Proc Natl Acad Sci USA 96, 4668-4673] using equal volumes of cell extracts per gel lane. The following antibodies were used: monoclonal anti-iNOS (1:1000 dilution, Transduction Labs); polyclonal anti-rat IL-1β (1:1000 dilution, R&D Systems, Inc.); monoclonal anti-glial fibrillary acidic protein (GFAP) (1:[…] dilution, Sigma); polyclonal anti-rat apoE (1:15,000 dilution) prepared as described [LaDu, M. J., Shah, J. A., Reardon, K., Getz, G. S., Bu, G., Hu, J., Guo, L., and Van Eldik, L. J. (2000) J. Biol. Chem. 275, 33974-33980]; polyclonal anti-COX-2 (1:500 dilution) and monoclonal anti-phosphoATF2 (1:1000 dilution) from Santa Cruz Biotechnology; polyclonal anti-phosphoCREB (1:1000 dilution), polyclonal anti-phosphop38 MAPK (1:1000 dilution), polyclonal anti-phosphop90RSK (1:1000 dilution), and monoclonal anti-phosphoERK1/2 (1:1000 dilution) from Cell Signaling.

Q: What does the source list for `N=c1cc2c(nn1CCCCCCCCCCC(=O)N1CCN(c3ncccn3)CC1)-c1ccccc1CC2` [MW01-070C]?
A: liver, kidney or brain damage based on histology (rats): no major liver, kidney or brain damage; IC50 (protein kinase C (PKC)): > 100 µM; phosphorylated ATF2 (BV-2 cells): does not inhibit; phosphorylated p38 MAPK (BV-2 cells): not blocked; phosphorylation of CREB (BV-2 cells): inhibited; phosphorylated p38 MAPK (BV-2 cells; listed as 1): does not inhibit; phosphorylation of CREB (BV-2 cells; listed as 1): inhibits
